From the supplement of paper PMC8882468

Experiments:
Assay in all cases: CTG-3D luminescence at 96 h relative to day-0 seeding control (ratio to day 0); higher = more growth / less cytotoxicity; PDxO 3D drug screen (set 2), 96 h, CTG-3D normalised to day-0 seeding control.
[1] = tested on: HCI-003.E2 (organoid from an ER-positive breast cancer xenograft)
[2] = tested on: HCI-010 (organoid from a breast cancer xenograft)
[3] = tested on: HCI-017.E2 (organoid from an ER-positive breast cancer xenograft)
[4] = tested on: HCI-019 (organoid from a triple-negative breast cancer xenograft)
[5] = tested on: HCI-023 (organoid from a triple-negative breast cancer xenograft)
[6] = tested on: HCI-025 (organoid from a breast cancer xenograft)

CO[C@H]1C[C@@H]2CC[C@@H](C)[C@@](O)(O2)C(=O)C(=O)N2CCCC[C@H]2C(=O)O[C@H]([C@H](C)C[C@@H]2CC[C@@H](OCCO)[C@H](OC)C2)CC(=O)[C@H](C)/C=C(\C)[C@@H](O)[C@@H](OC)C(=O)[C@H](C)C[C@H](C)/C=C/C=C/C=C/1C [everolimus]
CTG-3D luminescence at 96 h
Details	12.5 pM	0.00025 µM	0.005 µM	0.1 µM	1 µM	10 µM	100 µM	625 fM
[1]	1.22	1.04	0.796	0.297	0.0538	0.03	0.000105	1.67
[3]	1.59	1.63	1.8	1.25	0.822	0.73	0.00266	1.99

CTG-3D luminescence at 96 h
Details	12.5 pM	0.00025 µM	0.005 µM	0.1 µM	1 µM	10 µM	100 µM	625 fM
[2], days in culture: 79	1.18	1.21	1.18	1.28	1.13	1.12	-0.00276	1.31
[2], days in culture: 86	1.76	1.9	1.53	1.19	0.809	0.648	-0.000872	2.35
[2], days in culture: 102	1.16	0.848	0.691	0.497	0.337	0.158	-0.000165	1.13
[2], days in culture: 164	1.53	1.42	1.25	0.906	0.778	0.581	0.000191	1.52
[3], days in culture: 85	2.06	1.86	1.32	0.959	0.595	0.493	0.00146	2.29
[4], days in culture: 173	1.57	1.31	1.21	1.38	1.1	0.954	0.000122	1.63
[4], days in culture: 194	1.27	0.886	1.15	1.13	1.33	0.725	-0.00106	1.7
[4], days in culture: 215	0.96	0.554	0.902	0.622	0.482	0.326	0.000571	1.76
[5], days in culture: 223	2.04	1.82	1.17	1.19	0.991	1.28	-0.00123	1.43
[5], days in culture: 238	1.22	1.01	1	1.23	1.61	0.915	-0.00183	1.32
[5], days in culture: 252	1.97	1.75	1.51	1.44	1.55	1.91	-0.00273	1.89
[6], days in culture: 175	1.08	0.994	0.949	1.13	1.44	1.35	0.00118	1.41
[6], days in culture: 189	1.44	1.22	1.34	1.21	0.974	0.917	0.000135	2.02
[6], days in culture: 212	1.18	2.27	2.08	0.487	0.322	0.167	-0.000795	1.43
[6], days in culture: 224	1.8	2.05	1.58	0.608	0.581	0.366	-0.00196	1.74

CS(=O)(=O)CCNCc1ccc(-c2ccc3ncnc(Nc4ccc(OCc5cccc(F)c5)c(Cl)c4)c3c2)o1 [lapatinib]
CTG-3D luminescence at 96 h
Details	12.5 pM	0.00025 µM	0.005 µM	0.1 µM	1 µM	10 µM	100 µM	625 fM
[1]	2.53	2.41	2.48	2.27	1.77	0.0655	0.000467	2.95
[3]	2.11	2.75	2.4	2.37	1.95	0.905	0.00683	2.65

CTG-3D luminescence at 96 h
Details	12.5 pM	0.00025 µM	0.005 µM	0.1 µM	1 µM	10 µM	100 µM	625 fM
[2], days in culture: 79	1.89	1.81	2.03	2.16	2.02	0.69	-0.00188	2.06
[2], days in culture: 86	2.21	2.38	2.53	2.49	2.33	0.631	0.0027	2.48
[2], days in culture: 102	1.1	1.16	1.11	1.32	1.48	0.154	8.25e-05	1.09
[2], days in culture: 164	1.78	1.5	1.5	1.46	1.78	0.353	0.000987	1.63
[3], days in culture: 85	2.34	1.93	1.68	2.32	1.61	0.581	0.0189	2.45
[4], days in culture: 173	1.7	2.33	1.14	2.61	1.9	0.415	0.078	1.93
[4], days in culture: 194	1.47	2.84	1.45	2.84	1.7	0.531	0.0607	2.78
[4], days in culture: 215	1.96	2.03	1.85	1.67	1.66	0.323	0.00321	2.07
[5], days in culture: 223	1.82	2.13	1.85	2.09	1.46	0.716	0.00541	1.72
[5], days in culture: 238	1.38	1.57	1.41	1.6	1.91	0.911	0.00517	1.57
[5], days in culture: 252	2.21	2.11	1.77	1.94	1.86	1.14	0.00206	1.9
[6], days in culture: 175	1.92	2.05	1.45	2.22	2.73	1.66	0.00817	1.88
[6], days in culture: 189	1.99	2.19	1.58	3.08	1.26	0.872	0.00432	2.46
[6], days in culture: 212	1.59	3.22	4.13	3.86	1.17	0.527	0.00417	1.69
[6], days in culture: 224	2.14	1.93	1.8	1.82	1.84	0.896	0.000609	1.83
